In patent US10703733B2, “MCL-1 inhibitors” (Gilead Sciences, Inc., priority 2018, dated 2020):
Where two headings read alike, the source gives them in different places.

Columns and labels:
[1] = test system: SKBR3 cells; assay: SKBR3 Cell Viability Assay (CellTiter Glo); format: cell-based; settings: CellTiter Glo luminescence, read-out: MCL-1 CV SKBR3 EC50
In short: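 Viability read as CellTiter Glo luminescence after 72 h of compound exposure at 37° C./5% CO2, using 6,000 SKBR3 cells per well in McCoy 5A with 10% FBS. Percent inhibition scaled between DMSO wells and 10 μM puromycin wells.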

[2] = biological target: MCL-1/Bim interaction (recombinant human MCL-1 protein, residues 171-327; biotinylated human Bim peptide, residues 51-76) (Homo sapiens (Human), UniProt Q07820); assay: MCL-1/Bim Binding AlphaLISA Assay; settings: 0.0625 nM 6xHis-Mcl-1 (171-327), 0.0625 nM biotinylated-Bim peptide
In short: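 Compounds first sat 1 h with MCL-1 (171-327, 0.0625 nM), followed by 2 h with biotin-Bim 51-76 (0.0625 nM), then sequential 1 h anti-His acceptor and streptavidin donor bead steps; buffer Hepes pH 7.5 with NaCl, Brij 35, DTT, BSA. AlphaScreen signal converted to % inhibition using DMSO (negative) and protein/peptide-free (positive) controls.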

Sequence of MCL-1/Bim interaction (recombinant human MCL-1 protein, residues 171-327; biotinylated human Bim peptide, residues 51-76) (Q07820 171-327): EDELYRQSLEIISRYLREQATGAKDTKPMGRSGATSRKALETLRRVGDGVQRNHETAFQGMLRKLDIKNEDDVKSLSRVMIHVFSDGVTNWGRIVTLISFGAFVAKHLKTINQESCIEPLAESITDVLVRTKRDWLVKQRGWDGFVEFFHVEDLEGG

SMILES | EC50 ([1]; Homo sapiens, SK-BR-3, 72 h) [nM] | IC50 [2] [nM] | EC50 ([1]; 72 hours) [nM]
COC1CCN(C(=O)N[S@@]2(=O)=NC(=O)c3ccc4c(c3)N(C[C@@H]3CC[C@H]3[C@@H](OC)/C=C/C[C@H](C)C2)C[C@@]2(CCCc3cc(Cl)ccc32)CO4)CC1 [Example 320] | 36.6 | 0.035 | 
CO[C@H]1/C=C/CCC[S@@](=O)(NC(=O)CCc2cnn(C)n2)=NC(=O)c2ccc3c(c2)N(C[C@@H]2CC[C@H]21)C[C@@]1(CCCc2cc(Cl)ccc21)CO3 [Example 46] | 512 | 0.1 | 
COCC1(OC)CN(C(=O)N[S@@]2(=O)=NC(=O)c3ccc4c(c3)N(C[C@@H]3CC[C@H]3[C@@H](OC)/C=C/C[C@H](C)C2)C[C@@]2(CCCc3cc(Cl)ccc32)CO4)C1 [Example 274] | 82.6 | 0.043 | 
COCC12CC(NC(=O)N[S@@]3(=O)=NC(=O)c4ccc5c(c4)N(C[C@@H]4CC[C@H]4[C@@H](OC)/C=C/C[C@H](C)C3)C[C@@]3(CCCc4cc(Cl)ccc43)CO5)(C1)C2 [Example 211] | 54.2 | 0.082 | 
CO[C@H]1/C=C/C[C@H](C)C[S@@](=O)(NC(=O)N[C@H]2CCOC2)=NC(=O)c2ccc3c(c2)N(C[C@@H]2CC[C@H]21)C[C@@]1(CCCc2cc(Cl)ccc21)CO3 [Example 112] | 73.2 | 0.047 | 
CCN(C)C(=O)N[S@@]1(=O)=NC(=O)c2ccc3c(c2)N(C[C@@H]2CC[C@H]2[C@@H](OC)/C=C/CCC1)C[C@@]1(CCCc2cc(Cl)ccc21)CO3 [Example 77] | 6040 | 5.3 | 
COc1nn(C)cc1C(=O)N[S@@]1(=O)=NC(=O)c2ccc3c(c2)N(C[C@@H]2CC[C@H]2[C@@H](OC)/C=C/[C@@H](OC)CC1)C[C@@]1(CCCc2cc(Cl)ccc21)CO3 [Example 394] | 4750 | 1.72 | 
CCNC(=O)N[S@@]1(=O)=NC(=O)c2ccc3c(c2)N(C[C@@H]2CC[C@H]2[C@@H](OC)/C=C/C[C@H](C)C1)C[C@@]1(CCCc2cc(Cl)ccc21)CO3 [Example 421] | 152 | 0.081 | 
CCn1ccc(C(=O)N[S@@]2(=O)=NC(=O)c3ccc4c(c3)N(C[C@@H]3CC[C@H]3[C@@H](OC)/C=C/C[C@H](C)C2)C[C@@]2(CCCc3cc(Cl)ccc32)CO4)c1 [Example 130] | 152 | 0.18 | 
CO[C@H]1/C=C/C[C@H](C)C[S@@](=O)(NC(=O)C2Cc3cccnc3C2)=NC(=O)c2ccc3c(c2)N(C[C@@H]2CC[C@H]21)C[C@@]1(CCCc2cc(Cl)ccc21)CO3 (some centres unmarked) [Example 412] | 179 | 0.072 | 
CO[C@H]1/C=C/CCC[S@@](=O)(NC(=O)C2CCC2)=NC(=O)c2ccc3c(c2)N(C[C@@H]2CC[C@H]21)C[C@@]1(CCCc2cc(Cl)ccc21)CO3 [Example 31] | 2590 | 3.1 | 
COC1CCN(c2nn(C)cc2C(=O)N[S@@]2(=O)=NC(=O)c3ccc4c(c3)N(C[C@@H]3CC[C@H]3[C@@H](OC)/C=C/C[C@H](C)C2)C[C@@]2(CCCc3cc(Cl)ccc32)CO4)CC1 [Example 380] | 3400 | 4.54 | 
COC1CCn2cc(C(=O)N[S@@]3(=O)=NC(=O)c4ccc5c(c4)N(C[C@@H]4CC[C@H]4[C@@H](OC)/C=C/C[C@H](C)C3)C[C@@]3(CCCc4cc(Cl)ccc43)CO5)nc2C1 (some centres unmarked) [Example 302] | 302 | 0.091 | 
CO[C@H]1/C=C/C[C@H](C)C[S@@](=O)(NC(=O)[C@]23COCC2C3)=NC(=O)c2ccc3c(c2)N(C[C@@H]2CC[C@H]21)C[C@@]1(CCCc2cc(Cl)ccc21)CO3 (some centres unmarked) [Example 447] | 161 | 0.132 | 
CO[C@H]1/C=C/C[C@H](C)C[S@@](=O)(NC(=O)c2ccn(C)c2)=NC(=O)c2ccc3c(c2)N(C[C@@H]2CC[C@H]21)C[C@@]1(CCCc2cc(Cl)ccc21)CO3 [Example 147] | 111 | 0.051 | 
CO[C@H]1/C=C/C[C@H](C)C[S@@](=O)(NC(=O)N2CCN3CCOC[C@H]3C2)=NC(=O)c2ccc3c(c2)N(C[C@@H]2CC[C@H]21)C[C@@]1(CCCc2cc(Cl)ccc21)CO3 [Example 334] | 48.6 | 0.041 | 
COC[C@@H]1CCN(C(=O)N[S@@]2(=O)=NC(=O)c3ccc4c(c3)N(C[C@@H]3CC[C@H]3[C@@H](OC)/C=C/C[C@H](C)C2)C[C@@]2(CCCc3cc(Cl)ccc32)CO4)C1 [Example 256] | 161 | 0.162 | 
CO[C@H]1/C=C/C[C@H](C)C[S@@](=O)(NC(=O)c2cc(C)co2)=NC(=O)c2ccc3c(c2)N(C[C@@H]2CC[C@H]21)C[C@@]1(CCCc2cc(Cl)ccc21)CO3 [Example 203] | 76.1 | 0.073 | 
C[C@H]1C/C=C/[C@H](O)[C@@H]2CC[C@H]2CN2C[C@@]3(CCCc4cc(Cl)ccc43)COc3ccc(cc32)C(=O)N=[S@](=O)(NC(=O)N[C@H]2C[C@@H]2C(F)F)C1 [Example 321] | 47.1 | 0.037 | 

SMILES | EC50 ([1]; Homo sapiens, SK-BR-3, 72 h) [nM] | IC50 [2] [nM] | EC50 ([1]; 72 hours) [nM]
COc1nn(C)cc1C(=O)N[S@@]1(=O)=NC(=O)c2ccc3c(c2)N(C[C@@H]2CC[C@H]2[C@@H](OC)/C=C/[C@H](OCc2ccccn2)[C@H](C)C1)C[C@@]1(CCCc2cc(Cl)ccc21)CO3 [Example 402] | 90.2 | 0.098 | 
CCN(CC)C(=O)OC1CN(C(=O)N[S@@]2(=O)=NC(=O)c3ccc4c(c3)N(C[C@@H]3CC[C@H]3[C@@H](OC)/C=C/C[C@H](C)C2)C[C@@]2(CCCc3cc(Cl)ccc32)CO4)C1 [Example 226] | 71.3 | 0.095 | 
CO[C@H]1/C=C/C[C@H](C)C[S@@](=O)(NC(=O)N[C@@H]2CC23CCOC3)=NC(=O)c2ccc3c(c2)N(C[C@@H]2CC[C@H]21)C[C@@]1(CCCc2cc(Cl)ccc21)CO3 (single isomer, unassigned) [Example 342] | 33.6 | 0.029 | 
CO[C@H]1/C=C/CCC[S@@](=O)(NC(=O)CCCn2cccn2)=NC(=O)c2ccc3c(c2)N(C[C@@H]2CC[C@H]21)C[C@@]1(CCCc2cc(Cl)ccc21)CO3 [Example 85] | 3090 | 0.6 | 
CO[C@H]1/C=C/C[C@H](C)C[S@@](=O)(NC(=O)N[C@H]2C[C@H]2OC)=NC(=O)c2ccc3c(c2)N(C[C@@H]2CC[C@H]21)C[C@@]1(CCCc2cc(Cl)ccc21)CO3 [Example 317] | 48.5 | 0.034 | 
COCc1oc(C(=O)N[S@@]2(=O)=NC(=O)c3ccc4c(c3)N(C[C@@H]3CC[C@H]3[C@@H](OC)/C=C/C[C@H](C)C2)C[C@@]2(CCCc3cc(Cl)ccc32)CO4)cc1C [Example 339] | 53.2 | 0.07 | 
COc1nn(C)cc1C(=O)N[S@@]1(=O)=NC(=O)c2ccc3c(c2)N(C[C@@H]2CC[C@H]2[C@@H](OCCN2CCOCC2)/C=C/C[C@H](C)C1)C[C@@]1(CCCc2cc(Cl)ccc21)CO3 [Example 366] | 53.1 | 0.086 | 
COC1CN(C(=O)N[S@@]2(=O)=NC(=O)c3ccc4c(c3)N(C[C@@H]3CC[C@H]3[C@@H](O)/C=C/C[C@H](C)C2)C[C@@]2(CCCc3cc(Cl)ccc32)CO4)C1 [Example 266] | 53.8 | 0.085 | 
CO[C@H]1/C=C/CCC[S@@](=O)(NC(=O)CCn2cc(C)cn2)=NC(=O)c2ccc3c(c2)N(C[C@@H]2CC[C@H]21)C[C@@]1(CCCc2cc(Cl)ccc21)CO3 [Example 61] | 775 | 0.1 | 
CO[C@H]1/C=C/C[C@H](C)C[S@@](=O)(NC(=O)N[C@H]2CC23CCOC3)=NC(=O)c2ccc3c(c2)N(C[C@@H]2CC[C@H]21)C[C@@]1(CCCc2cc(Cl)ccc21)CO3 (single isomer, unassigned) [Example 341] | 39.4 | 0.032 | 
COc1nn(C)cc1C(=O)N[S@@]1(=O)=NC(=O)c2ccc3c(c2)N(C[C@@H]2CC[C@H]2[C@@H](O)/C=C\C[C@H](C)[C@H]1C)C[C@@]1(CCCc2cc(Cl)ccc21)CO3 [Example 343] | 17.3 | 0.019 | 
CO[C@H]1/C=C/C[C@H](C)C[S@@](=O)(NC(=O)N[C@H]2C[C@@](C)(O)C2)=NC(=O)c2ccc3c(c2)N(C[C@@H]2CC[C@H]21)C[C@@]1(CCCc2cc(Cl)ccc21)CO3 [Example 186] | 168 | 0.066 | 
CO[C@H]1/C=C/CCC[S@@](=O)(NC(=O)CCc2ccncn2)=NC(=O)c2ccc3c(c2)N(C[C@@H]2CC[C@H]21)C[C@@]1(CCCc2cc(Cl)ccc21)CO3 [Example 38] | 280 | 0.2 | 
CO[C@H]1/C=C/C[C@H](C)C[S@@](=O)(NC(=O)c2cn(C)c3nccnc23)=NC(=O)c2ccc3c(c2)N(C[C@@H]2CC[C@H]21)C[C@@]1(CCCc2cc(Cl)ccc21)CO3 [Example 450] | 167 | 0.234 | 
CO[C@H]1/C=C\C[C@H](C)[C@@H](C)[S@@](=O)(NC(=O)COC2CCOCC2)=NC(=O)c2ccc3c(c2)N(C[C@@H]2CC[C@H]21)C[C@@]1(CCCc2cc(Cl)ccc21)CO3 [Example 406] | 332 | 0.103 | 
CO[C@H]1/C=C/CCC[S@@](=O)(NC(=O)CCc2ccon2)=NC(=O)c2ccc3c(c2)N(C[C@@H]2CC[C@H]21)C[C@@]1(CCCc2cc(Cl)ccc21)CO3 [Example 58] | 664 | 0.2 | 
COC(=O)N1CCn2cc(C(=O)N[S@@]3(=O)=NC(=O)c4ccc5c(c4)N(C[C@@H]4CC[C@H]4[C@@H](OC)/C=C/C[C@H](C)C3)C[C@@]3(CCCc4cc(Cl)ccc43)CO5)cc2C1 [Example 177] | 46.4 | 0.129 | 
CCC(=O)N[S@@]1(=O)=NC(=O)c2ccc3c(c2)N(C[C@@H]2CC[C@H]2[C@@H](OC)CCCCC1)C[C@@]1(CCCc2cc(Cl)ccc21)CO3 [Example 12] |  | 1.7 | 4460
